Test results as given in patent US9587225B2, “Low-molecular-compound for improving production, maintenance and proliferation of pluripotent stem cells, composition comprising the same, and culture method” (KOREA RESEARCH INSTITUTE OF BIOSCIENCE AND BIOTECHNOLOGY, priority 2012, dated 2017).

Tested on: Mouse embryonic fibroblasts (OG2-MEF; hemizygous for the Oct4-GFP transgene)
Experiment: Reprogramming of mouse embryonic fibroblasts, Oct4-GFP colony count
Assay type: cell-based
Conditions: OG2-MEF transfected with OSKM, after 15 days, compared to control group
Method: FIG. 1 is a process of screening mouse cell reprogramming factors using analog library screening of novel trans-3-indoleacrylic acid-based compounds. In order to screen low-molecular-weight compounds that promote the production of reprogrammed stem cells, mouse embryonic stem cells (OG2-MEF; hemizygous for the Oct4-GFP transgene) were transduced with reprogramming viruses (Oct4, Sox2, Klf4, and c-Myc). After 5 days, the cells were seeded on gelatin-coated plates and then cultured in mouse embryonic stem cell culture media containing each of low-molecular-weight compounds until colonies having a morphology similar to that of mouse embryonic stem cells were formed. After 15 days, the number of colonies expressing endogenous Oct4 GFP fluorescence was measured, and compounds that increased the efficiency of reprogramming compared to that of a control group were selected. […] Oct4 (O), Sox2 (S), Klf4 (K), and cMyc (M). FIG. 1B is a graph showing the increase in efficiency of reprogramming by RSC-133 and ID-558 among screened compounds. The values shown on the graph are mean values. The data are expressed as mean±SD (n=3).
The OSKM reprogramming factor virus was produced according to the method of Example 3. […] At 15 days after the transfection, the number of either colonies showing AP activity or colonies expressing endogenous Oct4 GFP fluorescence was measured to determine the efficiency of reprogramming.
To discover low-molecular-weight compounds that are involved in the reprogramming process, analog library screening of novel trans-3-indoleacrylic acid-based compounds was performed in mouse cells. Mouse embryonic fibroblasts (OG2-MEF: hemizygous for the Oct4-GFP transgene) were transfected with reprogramming viruses of Oct4, Sox2, Klf4 and c-Myc (OSKM), and after 5 days, the cells were seeded on gelatin-coated 12-well plates and incubated with mouse embryonic stem cell culture medium containing each of low-molecular-weight compounds until colonies having a morphology similar to that mouse stem cells were formed so that endogenous Oct4 GFP fluorescence was expressed (FIG. 1A). […]

CN(C)C(=O)c1ccc(O)c(NC(=O)C=Cc2c[nH]c3ccccc23)c1 [ID-558, 3-[3-(1H-indol-3-yl)-acrylamido]-4-hydroxy-N,N-dimethylbenzamide]
efficiency of reprogramming (number of colonies expressing endogenous Oct4 GFP fluorescence): showed the effect of increasing the efficiency of reprogramming
